In ChEMBL document CHEMBL3217463, “Design, synthesis and biological evaluation of -lactam hydroxamate based TACE inhibitors” (Medchemcomm, 2011):
pIC50: −log10 of the molar value.

Columns and labels:
[1] = tested on: Rattus norvegicus; test: Toxicity in Wistar rat assessed as total bilirubin at 100 mg/kg, po bid for 28 days (reference value: 0.14 +/- 0.01 mg/dL); type: organism-based; design: dose 100 mg/kg, route oral; details: in vivo, 672 h
[2] = tested on: Rattus norvegicus; test: Toxicity in Wistar rat assessed as alanine aminotransferase at 100 mg/kg, po bid for 28 days (reference value: 20.78 +/- 1.31 U/L); type: organism-based; design: dose 100 mg/kg, route oral; details: in vivo, 672 h
[3] = tested on: Rattus norvegicus; test: Toxicity in Wistar rat assessed as aspartate aminotransferase at 100 mg/kg, po bid for 28 days (reference value: 147.16 +/- 11.75 U/L); type: organism-based; design: dose 100 mg/kg, route oral; details: in vivo, 672 h
[4] = tested on: Rattus norvegicus; test: Toxicity in Wistar rat assessed as alkaline phosphatase at 100 mg/kg, po bid for 28 days (reference value: 134.66 +/- 5.3 U/L); type: organism-based; design: dose 100 mg/kg, route oral; details: in vivo, 672 h
[5] = tested on: Blood; test: Antiinflammatory activity in human whole blood assessed as inhibition of LPS-induced TNFalpha secretion by ELISA; type: functional, tissue-based
[6] = tested on: Rattus norvegicus; test: Toxicity in Wistar rat assessed as RBC count at 100 mg/kg, po bid for 28 days (reference value: 7.38 +/- 0.11 10^6/ul); type: organism-based; design: dose 100 mg/kg, route oral; details: in vivo, 672 h
[7] = tested on: Rattus norvegicus; test: Toxicity in Wistar rat assessed as WBC count at 100 mg/kg, po bid for 28 days (reference value: 8.20 +/- 0.33 10^3/ul); type: organism-based; design: dose 100 mg/kg, route oral; details: in vivo, 672 h
[8] = biological target: T1, Disintegrin and metalloproteinase domain-containing protein 17 (Homo sapiens, UniProt P78536); test: Inhibition of human catalytic domain of TACE assessed as inhibit the cleavage of the substrate by fluorescence-based FRET assay
[9] = biological target: T2, Disintegrin and metalloproteinase domain-containing protein 10 (Homo sapiens, UniProt O14672); test: Inhibition of ADAM10 (unknown origin) using fluorescent substrate by fluorescence-based FRET assay
T2 sequence (O14672 whole entry): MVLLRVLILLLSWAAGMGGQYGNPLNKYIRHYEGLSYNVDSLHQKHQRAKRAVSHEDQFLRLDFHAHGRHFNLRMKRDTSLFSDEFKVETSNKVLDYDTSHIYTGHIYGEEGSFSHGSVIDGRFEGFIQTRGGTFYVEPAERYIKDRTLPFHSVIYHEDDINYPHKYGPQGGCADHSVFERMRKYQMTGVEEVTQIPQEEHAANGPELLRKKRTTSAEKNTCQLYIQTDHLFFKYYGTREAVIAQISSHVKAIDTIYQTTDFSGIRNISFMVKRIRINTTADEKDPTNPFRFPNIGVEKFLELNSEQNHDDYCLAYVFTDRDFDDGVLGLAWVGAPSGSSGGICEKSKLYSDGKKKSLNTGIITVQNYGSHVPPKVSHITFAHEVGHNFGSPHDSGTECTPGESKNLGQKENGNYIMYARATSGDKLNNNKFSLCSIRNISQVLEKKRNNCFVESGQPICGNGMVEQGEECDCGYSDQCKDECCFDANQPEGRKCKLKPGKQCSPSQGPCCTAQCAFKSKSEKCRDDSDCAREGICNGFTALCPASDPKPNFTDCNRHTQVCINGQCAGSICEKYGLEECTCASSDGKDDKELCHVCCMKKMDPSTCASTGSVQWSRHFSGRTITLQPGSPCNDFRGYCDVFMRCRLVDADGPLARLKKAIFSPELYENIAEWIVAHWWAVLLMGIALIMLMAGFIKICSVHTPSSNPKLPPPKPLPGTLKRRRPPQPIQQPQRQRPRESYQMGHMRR

[10] = biological target: T3, Interstitial collagenase (Homo sapiens, UniProt P03956); test: Inhibition of MMP1 (unknown origin) by fluorescence-based FRET assay
T3 sequence (P03956 whole entry): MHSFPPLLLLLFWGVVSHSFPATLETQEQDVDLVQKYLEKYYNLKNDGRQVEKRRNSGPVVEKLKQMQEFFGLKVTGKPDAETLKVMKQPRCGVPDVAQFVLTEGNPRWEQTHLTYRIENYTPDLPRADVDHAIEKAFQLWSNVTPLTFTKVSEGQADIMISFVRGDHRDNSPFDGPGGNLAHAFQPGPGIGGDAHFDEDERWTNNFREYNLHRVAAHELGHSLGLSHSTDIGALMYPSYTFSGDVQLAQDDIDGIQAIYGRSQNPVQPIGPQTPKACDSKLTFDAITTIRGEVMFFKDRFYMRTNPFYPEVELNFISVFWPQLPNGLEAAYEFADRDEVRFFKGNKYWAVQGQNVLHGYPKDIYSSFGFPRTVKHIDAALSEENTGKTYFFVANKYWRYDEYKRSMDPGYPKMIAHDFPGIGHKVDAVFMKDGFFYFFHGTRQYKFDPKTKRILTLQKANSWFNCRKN

[11] = biological target: 72 kDa type IV collagenase (Homo sapiens, UniProt P08253); test: Inhibition of MMP2 (unknown origin) by fluorescence-based FRET assay
[12] = biological target: Stromelysin-1 (Homo sapiens, UniProt P08254); test: Inhibition of MMP3 (unknown origin) by fluorescence-based FRET assay
[13] = biological target: T4, Matrilysin (Homo sapiens, UniProt P09237); test: Inhibition of MMP7 (unknown origin) by fluorescence-based FRET assay
T4 sequence (P09237 whole entry): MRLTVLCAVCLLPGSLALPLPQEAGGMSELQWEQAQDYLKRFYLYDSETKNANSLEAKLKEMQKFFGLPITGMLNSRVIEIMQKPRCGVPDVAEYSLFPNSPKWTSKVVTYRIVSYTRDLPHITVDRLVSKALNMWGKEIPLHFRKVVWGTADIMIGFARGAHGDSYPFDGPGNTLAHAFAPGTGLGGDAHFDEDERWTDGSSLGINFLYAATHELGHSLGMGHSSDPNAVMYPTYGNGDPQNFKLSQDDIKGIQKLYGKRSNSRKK

[14] = biological target: Neutrophil collagenase (Homo sapiens, UniProt P22894); test: Inhibition of MMP8 (unknown origin) by fluorescence-based FRET assay
[15] = biological target: Matrix metalloproteinase-9 (Homo sapiens, UniProt P14780); test: Inhibition of MMP9 (unknown origin) by fluorescence-based FRET assay
[16] = biological target: Collagenase 3 (Homo sapiens, UniProt P45452); test: Inhibition of MMP13 (unknown origin) by fluorescence-based FRET assay
[17] = biological target: Matrix metalloproteinase-14 (Homo sapiens, UniProt P50281); test: Inhibition of MMP14 (unknown origin) by fluorescence-based FRET assay
[18] = biological target: T1, Disintegrin and metalloproteinase domain-containing protein 17; test: Ratio of IC50 for human catalytic domain of TACE to IC50 for ADAM10 (unknown origin)
[19] = tested on: Mus musculus; test: Antiinflammatory activity in po dosed Swiss Albino mouse assessed as inhibition of LPS-induced TNFalpha secretion in blood treated 0.5 hrs before LPS and measured after 1 hr of LPS stimulus by ELISA; type: functional
[20] = Half life in Wistar rat at 5 mg/kg, iv; type: ADME, organism-based; design: dose 5 mg/kg, route intravenous; details: in vivo
[21] = Elimination rate constant in Wistar rat at 5 mg/kg, iv; type: ADME, organism-based; design: dose 5 mg/kg, route intravenous; details: in vivo
[22] = AUC in Wistar rat at 5 mg/kg, iv; type: ADME, organism-based; design: dose 5 mg/kg, route intravenous; details: plasma
[23] = Tmax in Wistar rat at 5 mg/kg, po; type: ADME, organism-based; design: dose 5 mg/kg, route oral; details: in vivo
[24] = Half life in Wistar rat at 5 mg/kg, po; type: ADME, organism-based; design: dose 5 mg/kg, route oral; details: Wistar, in vivo
[25] = Elimination rate constant in Wistar rat at 5 mg/kg, po; type: ADME, organism-based; design: dose 5 mg/kg, route oral; details: Wistar, in vivo
[26] = AUC in Wistar rat at 5 mg/kg, po; type: ADME, organism-based; design: dose 5 mg/kg, route oral; details: plasma
[27] = Oral bioavailability in Wistar rat at 5 mg/kg; type: ADME, organism-based; details: in vivo
[28] = tested on: Rattus norvegicus; test: Toxicity in Wistar rat assessed as survival at 100 mg/kg, po bid for 28 days; type: organism-based; design: dose 100 mg/kg, route oral; details: in vivo, 672 h
[29] = tested on: Rattus norvegicus; test: Toxicity in Wistar rat assessed as adverse changes at 100 mg/kg, po bid for 28 days; type: organism-based; design: dose 100 mg/kg, route oral; details: in vivo, 672 h
[30] = tested on: Rattus norvegicus; test: Toxicity in Wistar rat assessed as body weight at 100 mg/kg, po bid for 28 days; type: organism-based; design: dose 100 mg/kg, route oral; details: in vivo, 672 h
[31] = tested on: Rattus norvegicus; test: Toxicity in Wistar rat assessed as food consumption at 100 mg/kg, po bid for 28 days; type: organism-based; design: dose 100 mg/kg, route oral; details: in vivo, 672 h
[32] = tested on: Rattus norvegicus; test: Toxicity in Wistar rat assessed as relative heart weight at 100 mg/kg, po bid for 28 days (reference value: 0.345 +/- 0.007 %); type: organism-based; design: dose 100 mg/kg, route oral; details: in vivo, 672 h
[33] = tested on: Rattus norvegicus; test: Toxicity in Wistar rat assessed as relative liver weight at 100 mg/kg, po bid for 28 days (reference value: 3.659 +/- 0.1 %); type: organism-based; design: dose 100 mg/kg, route oral; details: in vivo, 672 h
[34] = tested on: Rattus norvegicus; test: Toxicity in Wistar rat assessed as relative kidney weight at 100 mg/kg, po bid for 28 days (reference value: 0.821 +/- 0.03 %); type: organism-based; design: dose 100 mg/kg, route oral; details: in vivo, 672 h
[35] = tested on: Rattus norvegicus; test: Toxicity in Wistar rat assessed as relative spleen weight at 100 mg/kg, po bid for 28 days (reference value: 0.201+/- 0.007 %); type: organism-based; design: dose 100 mg/kg, route oral; details: in vivo, 672 h
[36] = tested on: Rattus norvegicus; test: Toxicity in Wistar rat assessed as relative brain weight at 100 mg/kg, po bid for 28 days (reference value: 0.727+/- 0.024 %); type: organism-based; design: dose 100 mg/kg, route oral; details: in vivo, 672 h

T1 sequence (P78536 whole entry, the tested form may be a part): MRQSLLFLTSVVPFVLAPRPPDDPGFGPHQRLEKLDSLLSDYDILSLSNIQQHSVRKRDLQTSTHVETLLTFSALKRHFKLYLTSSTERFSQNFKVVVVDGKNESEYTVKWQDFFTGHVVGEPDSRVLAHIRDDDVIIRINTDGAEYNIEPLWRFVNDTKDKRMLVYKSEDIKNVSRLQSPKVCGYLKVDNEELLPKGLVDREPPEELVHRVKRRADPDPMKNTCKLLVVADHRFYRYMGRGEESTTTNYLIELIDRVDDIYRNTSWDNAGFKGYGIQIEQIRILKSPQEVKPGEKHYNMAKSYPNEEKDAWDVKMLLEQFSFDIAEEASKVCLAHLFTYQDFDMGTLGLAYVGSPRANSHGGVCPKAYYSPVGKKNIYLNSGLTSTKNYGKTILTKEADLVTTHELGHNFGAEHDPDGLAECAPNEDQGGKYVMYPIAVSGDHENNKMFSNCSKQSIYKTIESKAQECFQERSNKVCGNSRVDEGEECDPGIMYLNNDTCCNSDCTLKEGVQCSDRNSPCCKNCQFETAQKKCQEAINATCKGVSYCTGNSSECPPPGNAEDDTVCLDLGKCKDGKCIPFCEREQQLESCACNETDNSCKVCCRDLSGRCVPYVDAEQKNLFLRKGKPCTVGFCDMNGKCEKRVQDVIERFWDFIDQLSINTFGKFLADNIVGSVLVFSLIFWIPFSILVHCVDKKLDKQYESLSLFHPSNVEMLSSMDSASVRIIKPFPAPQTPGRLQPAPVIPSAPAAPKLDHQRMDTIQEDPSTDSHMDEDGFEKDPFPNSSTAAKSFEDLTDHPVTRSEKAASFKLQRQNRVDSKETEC
Matrix metalloproteinase-9, sequence (P14780 whole entry): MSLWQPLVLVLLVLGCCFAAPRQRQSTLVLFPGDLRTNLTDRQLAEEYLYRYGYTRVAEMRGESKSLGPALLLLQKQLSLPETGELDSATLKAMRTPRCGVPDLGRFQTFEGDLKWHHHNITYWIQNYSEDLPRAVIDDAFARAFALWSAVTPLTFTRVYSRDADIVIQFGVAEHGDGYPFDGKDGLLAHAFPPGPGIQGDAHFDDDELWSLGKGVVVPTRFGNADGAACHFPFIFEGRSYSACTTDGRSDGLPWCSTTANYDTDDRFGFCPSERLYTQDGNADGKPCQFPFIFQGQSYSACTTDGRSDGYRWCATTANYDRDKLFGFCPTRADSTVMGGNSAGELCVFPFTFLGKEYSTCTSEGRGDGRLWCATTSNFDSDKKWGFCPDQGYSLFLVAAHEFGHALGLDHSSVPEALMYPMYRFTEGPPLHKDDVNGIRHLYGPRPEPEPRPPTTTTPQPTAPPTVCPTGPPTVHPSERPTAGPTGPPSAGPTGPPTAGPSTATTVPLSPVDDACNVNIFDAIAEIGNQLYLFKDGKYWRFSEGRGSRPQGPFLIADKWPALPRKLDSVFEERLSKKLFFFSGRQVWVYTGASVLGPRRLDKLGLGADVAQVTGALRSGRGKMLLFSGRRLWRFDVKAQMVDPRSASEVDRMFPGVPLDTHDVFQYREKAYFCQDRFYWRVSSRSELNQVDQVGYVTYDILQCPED
72 kDa type IV collagenase, sequence (P08253 whole entry): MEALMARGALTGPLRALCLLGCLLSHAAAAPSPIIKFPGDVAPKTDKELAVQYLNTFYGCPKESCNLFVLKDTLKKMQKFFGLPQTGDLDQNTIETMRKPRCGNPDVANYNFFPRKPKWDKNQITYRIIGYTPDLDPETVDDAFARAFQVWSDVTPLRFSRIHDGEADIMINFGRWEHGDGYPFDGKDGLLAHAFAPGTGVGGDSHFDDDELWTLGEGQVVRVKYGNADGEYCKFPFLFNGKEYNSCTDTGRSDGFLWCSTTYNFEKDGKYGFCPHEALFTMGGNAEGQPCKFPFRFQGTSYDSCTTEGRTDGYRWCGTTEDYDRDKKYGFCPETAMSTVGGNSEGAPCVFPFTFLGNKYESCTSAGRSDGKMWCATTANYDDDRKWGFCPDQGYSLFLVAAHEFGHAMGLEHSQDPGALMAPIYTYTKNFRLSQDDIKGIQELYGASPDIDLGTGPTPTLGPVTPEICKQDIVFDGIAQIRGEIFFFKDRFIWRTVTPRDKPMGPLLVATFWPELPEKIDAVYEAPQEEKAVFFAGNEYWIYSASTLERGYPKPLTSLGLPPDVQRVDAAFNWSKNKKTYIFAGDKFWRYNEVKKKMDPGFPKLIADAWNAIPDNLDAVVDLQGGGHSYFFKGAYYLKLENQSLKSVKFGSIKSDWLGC
Neutrophil collagenase, sequence (P22894 whole entry): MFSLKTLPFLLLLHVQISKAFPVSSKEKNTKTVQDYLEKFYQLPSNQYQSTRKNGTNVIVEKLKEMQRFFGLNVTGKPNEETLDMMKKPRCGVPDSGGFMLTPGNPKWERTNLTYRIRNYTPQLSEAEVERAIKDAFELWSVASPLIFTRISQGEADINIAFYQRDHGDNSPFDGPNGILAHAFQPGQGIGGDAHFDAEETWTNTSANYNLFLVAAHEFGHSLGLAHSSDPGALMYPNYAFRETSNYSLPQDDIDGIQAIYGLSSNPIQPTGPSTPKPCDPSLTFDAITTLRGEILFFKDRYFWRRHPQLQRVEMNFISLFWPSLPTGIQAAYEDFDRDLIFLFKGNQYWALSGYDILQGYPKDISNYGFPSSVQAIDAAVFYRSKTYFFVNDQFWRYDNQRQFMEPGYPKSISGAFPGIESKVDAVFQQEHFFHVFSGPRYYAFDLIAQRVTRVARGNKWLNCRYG
Stromelysin-1, sequence (P08254 whole entry): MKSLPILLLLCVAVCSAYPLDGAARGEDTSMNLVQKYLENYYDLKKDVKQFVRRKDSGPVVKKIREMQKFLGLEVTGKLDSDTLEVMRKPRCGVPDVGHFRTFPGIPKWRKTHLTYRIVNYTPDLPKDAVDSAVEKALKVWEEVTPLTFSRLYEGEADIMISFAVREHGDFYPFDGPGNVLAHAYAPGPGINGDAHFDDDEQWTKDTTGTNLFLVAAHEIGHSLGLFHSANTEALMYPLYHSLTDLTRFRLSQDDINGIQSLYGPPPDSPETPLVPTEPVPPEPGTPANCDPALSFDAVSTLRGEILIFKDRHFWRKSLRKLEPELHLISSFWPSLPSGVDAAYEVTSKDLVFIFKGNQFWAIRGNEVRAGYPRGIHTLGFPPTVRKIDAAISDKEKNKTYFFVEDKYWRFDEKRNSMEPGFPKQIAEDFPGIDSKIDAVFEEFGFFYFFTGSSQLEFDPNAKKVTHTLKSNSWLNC

## Cc1cc(COc2ccc([C@]3(N)CCN([C@H](CC(C)C)C(=O)NO)C3=O)cc2)c2ccccc2n1
[1]
  Activity: 0.79 mg/dL
[2]
  Activity: 39.22 U/L
[3]
  Activity: 457.21 U/L
[4]
  Activity: 523.43 U/L
[5]
  pIC50: 7.22
[6]
  Activity: 7.69 ×10⁶ /uL
[7]
  Activity: 8.99 ×10³ /uL
[8]
  pIC50: 7.92
[9]
  pIC50: 6.32
[10]
  pIC50: 6.37
[11]
  pIC50: 6.32
[12]
  pIC50: 6.55
[13]
  pIC50: 6.33
[14]
  pIC50: 6.52
[15]
  pIC50: 6.41
[16]
  pIC50: 6.34
[17]
  pIC50: 6.30
[18]
  Ratio IC50: 40
[19]
  ED50: 6.9 mg/kg
[20]
  half-life: 2.69 h
[21]
  k el: 8.33e-05 s⁻¹
[22]
  AUC: 32400 ng·h/mL
[23]
  Tmax: 1.21 h
[24]
  half-life: 8.67 h
[25]
  k el: 2.22e-05 s⁻¹
[26]
  AUC: 5970 ng·h/mL
[27]
  bioavailability: 18.4%
[28]
  Activity: Non-toxic
[29]
  Activity: Non-toxic
[30]
  Activity: Non-toxic
[31]
  Activity: Non-toxic
[32]
  Activity: 0.351%
[33]
  Activity: 4.993%
[34]
  Activity: 0.831%
[35]
  Activity: 0.211%
[36]
  Activity: 0.714%
